Experiments:
[1] = Boron biodistribution in AB22 tumour bearing mice (ICP-MS); assay type: in vivo, Balb/c mice; conditions: 37.5 mg/kg of boron, ± SD; for Brain [boron]: with β-cyclodextrin oligomer
Experimental: Adult male Balb/c mice were maintained under specific pathogen-free conditions at the animal facility of the Department of Molecular Biotechnology and Health Sciences (Turin University, Italy). All animal experiments have been carried out in accordance with the EU Directive 2010/63/EU for animal experiments. The animal treatment protocol was approved by the Italian Ministry of Health (Authorization Number 1012/2015-PR). AB22 cells were cultured as described above and tumours were generated by the injection of 4.8 × 10^6 AB22 cells in a final volume of 0.15 ml GFNR Matrigel (CORNING Ref. 354234): PBS (1:1 v/v) subcutaneously in the neck of the mouse. One week after the AB22-cell injection, the mice developed solid tumours of approximately 50 ± 10 mm^3 in volume. At this time, mice (n = 6) received an intravenous injection of CA-SF (88 mg/kg corresponding to 37.5 mg/kg of ^10B). Before the injection, CA-SF in DMSO was mixed in the presence of poly β-cyclodextrin (MW = 15,000 Da) previously dissolved in 0.9% solution of NaCl. The used CA-SF molar ratio with respect to β-cyclodextrin oligomer was 10:1. The DMSO concentration in 0.9% NaCl was kept under 5%. The mice were then sacrificed at 6 h (n = 3) and at 16 h (n = 3). The boron content of mice plasma, tumours, organs (Liver, Lung, Brain, Spleen, Kidneys) and healthy tissues (Muscle) was determined by ICP-MS technique (see below).
Boron content from cell samples, mice organs, plasma and tumours were determined using inductively coupled plasma mass spectrometry (ICP-MS) (Element-2; Thermo-Finnigan, Rodano (MI), Italy).
The mice blood was collected and centrifuged at 2500 rpm for 10 min to split the plasma part over whole blood; the tumours, organs and healthy tissues were explanted. All was weighted, dissolved in HNO3 (70%) and digested. Both natural boron abundant and ^10B enriched standard solution was analyzed during sample runs in order to check for variations in the systematic bias. The calibration curve was obtained using four boron absorption standard solutions (Sigma-Aldrich) in the range 0.1–0.004 μg/mL.

AB22 mesothelioma tumour = experiment: Tumour growth by MRI in AB22 mesothelioma tumour bearing mice (CA-SF with or without BNCT); assay type: in vivo, Balb/c mice; conditions: three i.v. doses 37.5 mg/kg of boron at day 0, 2, 6, followed 25 days
Experimental: CA-SF treatment on mesothelioma bearing mice, were performed in the thermal column of the TRIGA Mark II reactor at Pavia University (Italy) using the same protocol reported in reference^35. The irradiation facility was previously designed for TAOrMINA treatment developed to treat multiple liver metastases with BNCT. The chamber used to perform animal irradiation has a cross section of 40 × 20 cm^2, a length of 1 m and it starts at about 1.3 m from the center of the reactor core. The animal irradiation position has been characterised in terms of neutron spectrum and background photon dose[43]. […]
The T2-weighted MR images were acquired at 1 T with an Aspect M2-High Performance MRI System (Aspect Magnet Technologies Ltd., Netanya, Israel) consisting of a NdFeB magnet, equipped with a 35 mm solenoid Tx/Tr coil of inner diameter 35 mm. […] The tumour volume (mm^3) was calculated in the region of interest (ROI) manually drawn on the whole tumour by ITK-SNAP software. Tumour volume enhancement (%) was calculated according to the following equation: ((tumour volume (time = n) – tumour volume (time = 0)/tumour volume (time = 0)) × 100, where time = 0 indicates the day of the first CA-SF treatment and time = n indicates the days when mice were acquired by MRI.

1-Sulfonamidomethyl-o-carborane [CA-SF]
Brain [boron] ([1]; 6 h post i.v.): 30.7 ± 11.2 µg/g
Kidney [boron] ([1]; 6 h post i.v.): 48.2 ± 15.3 µg/g
Liver [boron] ([1]; 6 h post i.v.): 64.5 ± 1.2 µg/g
Lungs [boron] ([1]; 6 h post i.v.): 37.2 ± 11.2 µg/g
Muscle [boron] ([1]; 6 h post i.v.): 13.2 ± 2.5 µg/g
Plasma [boron] ([1]; 6 h post i.v.): 20.4 ± 5.4 µg/g
Spleen [boron] ([1]; 6 h post i.v.): 18.5 ± 5.8 µg/g
Tumour [boron] ([1]; 6 h post i.v.): 13.8 ± 2.4 µg/g
Brain [boron] ([1]; 16 h post i.v.): 7.3 ± 1.1 µg/g
Kidney [boron] ([1]; 16 h post i.v.): 13.7 ± 1.9 µg/g
Liver [boron] ([1]; 16 h post i.v.): 22.7 ± 3.5 µg/g
Lungs [boron] ([1]; 16 h post i.v.): 12.1 ± 2.2 µg/g
Muscle [boron] ([1]; 16 h post i.v.): 4.4 ± 1.2 µg/g
Plasma [boron] ([1]; 16 h post i.v.): 11.1 ± 1.3 µg/g
Spleen [boron] ([1]; 16 h post i.v.): 6.2 ± 1.5 µg/g
Tumour [boron] ([1]; 16 h post i.v.): 7.4 ± 2.1 µg/g
tumour growth (MRI tumour volume) vs vehicle control mice (AB22 mesothelioma tumour; CA-SF alone, not irradiated): significantly inhibits mice tumour growth
tumour growth (MRI tumour volume), CA-SF + BNCT (AB22 mesothelioma tumour; neutron irradiation day 3, 15 min, 250 kW): dramatic reduction of the mass of tumours

— publication PMC7648750, “In vitro and in vivo BNCT investigations using a carborane containing sulfonamide targeting CAIX epitopes on malignant pleural mesothelioma and breast cancer cells” (Scientific Reports, 2020)
